Reference: the NIST ThermoML archive (doi:10.1021/acs.jced.5b00934)

Details: Liquid, Vibrating tube method

CCC(C)O (stereo not drawn) [butan-2-ol]
Details	mass density [kg/m3]
343.15 K, 47992 kPa	801
343.15 K, 49990 kPa	802.3
343.15 K, 52005 kPa	803.6
343.15 K, 55047 kPa	805.7
343.15 K, 57941 kPa	807.5
343.15 K, 59985 kPa	808.8
343.15 K, 61963 kPa	810
343.15 K, 64974 kPa	811.9
343.16 K, 2963 kPa	763.4
343.16 K, 66132 kPa	812.5
348.15 K, 99 kPa	755
348.15 K, 293 kPa	755.2
348.15 K, 632 kPa	755.6
348.15 K, 926 kPa	756
348.15 K, 1007 kPa	756
348.15 K, 1961 kPa	757.1
348.15 K, 2971 kPa	758.2
348.15 K, 4887 kPa	760.3
348.15 K, 6901 kPa	762.5
348.15 K, 8976 kPa	764.6
348.15 K, 10049 kPa	765.7
348.15 K, 12159 kPa	767.9
348.15 K, 15134 kPa	770.8
348.15 K, 18029 kPa	773.4
348.15 K, 20029 kPa	775.3
348.15 K, 22105 kPa	777.1
348.15 K, 24943 kPa	779.5
348.15 K, 27937 kPa	782.1
348.15 K, 29922 kPa	783.7
348.15 K, 32051 kPa	785.4
348.15 K, 33089 kPa	786.2
348.15 K, 33156 kPa	786.2
348.15 K, 34089 kPa	786.8
348.15 K, 35121 kPa	787.6
348.15 K, 37976 kPa	789.8
348.15 K, 40028 kPa	791.3
348.15 K, 42107 kPa	792.9
348.15 K, 44933 kPa	794.9
348.15 K, 48043 kPa	797.1
348.15 K, 50077 kPa	798.4
348.15 K, 52078 kPa	799.8
348.15 K, 54947 kPa	801.7
348.15 K, 58004 kPa	803.6
348.15 K, 60105 kPa	805.1
348.15 K, 62134 kPa	806.4
348.15 K, 64952 kPa	808.1
348.15 K, 66089 kPa	808.8
353.15 K, 101 kPa	749.7
353.15 K, 309 kPa	749.9
353.15 K, 488 kPa	750.2
353.15 K, 937 kPa	750.7
353.15 K, 997 kPa	750.8
353.15 K, 2036 kPa	752
353.15 K, 5052 kPa	755.5
353.15 K, 7035 kPa	757.6
353.15 K, 8919 kPa	759.7
353.15 K, 10172 kPa	761
353.15 K, 14941 kPa	765.8
353.15 K, 20147 kPa	770.7
353.15 K, 22188 kPa	772.6
353.15 K, 25053 kPa	775.1
353.15 K, 28045 kPa	777.7
353.15 K, 30122 kPa	779.4
353.15 K, 31946 kPa	780.9
353.15 K, 32790 kPa	781.6
353.15 K, 32795 kPa	781.5
353.15 K, 34025 kPa	782.5
353.15 K, 35037 kPa	783.3
353.15 K, 39961 kPa	787.1
353.15 K, 42055 kPa	788.7
353.15 K, 45025 kPa	790.9
353.15 K, 47906 kPa	793
353.15 K, 51988 kPa	795.8
353.15 K, 58003 kPa	799.9
353.15 K, 62118 kPa	802.6
353.15 K, 65015 kPa	804.4
353.15 K, 66227 kPa	805.2
353.16 K, 2973 kPa	753.1
353.16 K, 12072 kPa	762.9
353.16 K, 18090 kPa	768.8
353.16 K, 38061 kPa	785.7
353.16 K, 49998 kPa	794.4
353.16 K, 54972 kPa	797.7
353.16 K, 60035 kPa	801.2
358.15 K, 94 kPa	744.2
358.15 K, 317 kPa	744.5
358.15 K, 531 kPa	744.8
358.15 K, 912 kPa	745.3
358.15 K, 2002 kPa	746.6
358.15 K, 6978 kPa	752.5
358.15 K, 8996 kPa	754.7
358.15 K, 14843 kPa	760.9
358.15 K, 20099 kPa	766.2
358.15 K, 22025 kPa	767.9
358.15 K, 25009 kPa	770.7
358.15 K, 33055 kPa	777.5
358.15 K, 33103 kPa	777.7
358.15 K, 34173 kPa	778.4
358.15 K, 35154 kPa	779.2
358.15 K, 38016 kPa	781.5
358.15 K, 40036 kPa	783.1
358.15 K, 42070 kPa	784.7
358.15 K, 44944 kPa	786.8
358.15 K, 47921 kPa	789
358.15 K, 50038 kPa	790.5
358.15 K, 52069 kPa	792
358.15 K, 55065 kPa	794.1
358.15 K, 58024 kPa	796.1
358.15 K, 60060 kPa	797.4
358.15 K, 62217 kPa	798.9
358.15 K, 65051 kPa	800.7
358.15 K, 66079 kPa	801.3
358.16 K, 997 kPa	745.3
358.16 K, 2956 kPa	747.8
358.16 K, 4886 kPa	750.1
358.16 K, 10124 kPa	755.9
358.16 K, 11961 kPa	757.9
358.16 K, 17993 kPa	764.1
358.16 K, 27942 kPa	773.3
358.16 K, 30089 kPa	775.1
358.16 K, 32063 kPa	776.8
363.15 K, 99 kPa	738.7
363.15 K, 349 kPa	739
363.15 K, 512 kPa	739.3
363.15 K, 910 kPa	739.8
363.15 K, 3038 kPa	742.5
363.15 K, 12190 kPa	753.3
363.15 K, 25101 kPa	766.2
363.15 K, 30034 kPa	770.6
363.15 K, 33002 kPa	773.1
363.15 K, 33042 kPa	773.2
363.15 K, 34072 kPa	774
363.15 K, 40041 kPa	779
363.15 K, 42237 kPa	780.7
363.15 K, 44948 kPa	782.8
363.15 K, 48033 kPa	785.1
363.15 K, 50015 kPa	786.6
363.15 K, 52088 kPa	788.1
363.15 K, 55038 kPa	790.2
363.15 K, 57996 kPa	792.2
363.15 K, 60085 kPa	793.7
363.15 K, 62081 kPa	795
363.15 K, 65016 kPa	796.9
363.15 K, 66010 kPa	797.6
363.16 K, 1038 kPa	739.9
363.16 K, 2013 kPa	741.2
363.16 K, 5065 kPa	745
363.16 K, 7039 kPa	747.4
363.16 K, 8975 kPa	749.7
363.16 K, 10001 kPa	750.8
363.16 K, 14664 kPa	755.9
363.16 K, 17691 kPa	759
363.16 K, 20116 kPa	761.4
363.16 K, 22089 kPa	763.4
363.16 K, 28014 kPa	768.8
363.16 K, 32089 kPa	772.4
363.16 K, 35096 kPa	775
363.16 K, 37960 kPa	777.4
